Results published in patent publication US20120288482A1, “THERAPEUTIC AGENT (Y-39983) FOR CORNEAL ENDOTHELIAL DYSFUNCTION” (priority 2009, published 2012).

What was measured:
[1] = test system: rabbit corneal endothelial cells; assay: Adhesion of cultured corneal endothelial cells to culture plate (Example 6); assay type: cell-based; details: 3 hours after seeding
Experimental: In this Example, rabbit corneal endothelial cells prepared in the same manner as in Example 4 were used. In this Example, moreover, test substances and control substance prepared in the same manner as in Example 4 were used. The collected rabbit corneal endothelial cells were diluted, and a culture medium (about 4 ml, DMEM (Invitrogen, Cat. #12320-032), 10% FBS, 2 ng/mL bFGF (Invitrogen, Cat. #13256-029) and 1% penicillin/streptomycin (Invitrogen, Cat. #15070-063)) was added to the cells. Then, each medicament was added to the culture medium to final concentrations of 0.09, 0.32, 0.95, 3.16 and 9.47 μM compound (I), 10 μM Y-27632 and 10 μM Fasudil. As a control, DMSO was added to a final concentration of 0.04%. These cells were seeded in a 96 well plate (Corning Incorporated, Cat. #3595) at 1000 cells/well. After 3 hours from the seeding, suspended cells were removed, and adhered cells were counted by CellTiter-Glo (registered trade mark) Luminescent Cell Viability Assay (promega Cat. #G7572).

[2] = test system: rabbit corneal endothelial cells; assay: Wound healing model of cultured corneal endothelial cells (Example 5); assay type: cell-based
Experimental: In this Example, rabbit corneal endothelial cells prepared in the same manner as in Example 4 were used. In this Example, moreover, test substances and control substance prepared in the same manner as in Example 4 were used. Collected rabbit corneal endothelial cells were diluted with a culture medium (about 4 ml, DMEM (Invitrogen, Cat. #12320-032), 10% FBS, 2 ng/mL bFGF (Invitrogen, Cat. #13256-029) and 1% penicillin/streptomycin (Invitrogen, Cat. #15070-063)), and seeded at a division ratio of 1:4 by 2 ml per well in a 6 well plate (Corning Incorporated, Cat. #3516). The cells were incubated to confluent under conditions of 37° C. and 5% CO2. Wound was created in the confluent cells using 1000 μL chip (Molecular BioProducts, 2279). Then, each medicament was added to the culture medium to a final concentration of 0.09, 0.32, 0.95, 3.16 and 9.47 μM compound (I), 10 μM Y-27632 and 10 μM Fasudil. As a control, DMSO was added to a final concentration of 0.04%. At 6 hours, 12 hours and 24 hours after addition of each medicament, the width of the wound was photographed over time, and the width of the wound was evaluated by image analysis.

Compound: C[C@@H](N)c1ccc(C(=O)Nc2ccnc3[nH]ccc23)cc1.Cl [compound (I), (R)-(+)-N-(1H-pyrrolo[2,3-b]pyridin-4-yl)-4-(1-aminoethyl)benzamide monohydrochloride]
- number of adherent cells ([1]; 0.32 μM): almost the same level as 10 μM Y-27632
- concentration at which the number of adherent cells reached plateau [1]: not less than 0.32 μM
- number of adherent cells ([1]; all addition groups (0.09-9.47 μM)): increased the number of adherent cells
- wound healing effect ([2]; 0.95 μM, student's t-test): showed a wound healing effect from the early stages of the addition
- wound width ([2]; 9.47 μM, versus control): no statistically significant difference from the control group
- wound width ([2]; 0.09-3.16 μM, 24 hours after addition, Dunnett's test): significantly decreased
- concentration showing a wound healing effect ([2]; in vitro wound healing model, Example 5): 0.09 to 3.16 µM
